Experiment in all cases: relative viability (nuclei count vs DMSO), 5 days (fraction); higher = more cells survive
Compound in the assay “Dactolisib + Luminespib”: Cn1c(=O)n(-c2ccc(C(C)(C)C#N)cc2)c2c3cc(-c4cnc5ccccc5c4)ccc3ncc21 [Dactolisib] + CCNC(=O)c1noc(-c2cc(C(C)C)c(O)cc2O)c1-c1ccc(CN2CCOCC2)cc1 [Luminespib] (partner 0.01 µM)
The essentials:
(§1)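 Dosing by pin tool came one day after lung cancer cell lines were seeded in 1536-well plates, using either one drug or a fixed anchor-drug dose plus five library-drug doses (not always all listed) in √10 steps. After 5 days, nuclei were counted on 4× images. Relative viability is treated-well nuclei count divided by vehicle-well nuclei count, and values are medians of duplicate plates.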

Compound in the assay “Dactolisib + Pemetrexed”: Cn1c(=O)n(-c2ccc(C(C)(C)C#N)cc2)c2c3cc(-c4cnc5ccccc5c4)ccc3ncc21 [Dactolisib] + Nc1nc2[nH]cc(CCc3ccc(C(=O)N[C@@H](CCC(=O)O)C(=O)O)cc3)c2c(=O)[nH]1 [Pemetrexed] (partner 0.2 µM)
In short, it runs like this:
as §1

Compound in the assay “Dactolisib + Bortezomib”: Cn1c(=O)n(-c2ccc(C(C)(C)C#N)cc2)c2c3cc(-c4cnc5ccccc5c4)ccc3ncc21 [Dactolisib] + CC(C)C[C@H](NC(=O)[C@H](Cc1ccccc1)NC(=O)c1cnccn1)B(O)O [Bortezomib] (partner 0.002 µM)
In short, it runs like this:
as §1

Compound in the assay “AZ505 + Trametinib”: C1CCC(CC1)N(CCNCCC2=C3C(=C(C=C2)O)NC(=O)CO3)C(=O)CCNCCC4=CC(=C(C=C4)Cl)Cl [AZ505] + CC(=O)Nc1cccc(-n2c(=O)n(C3CC3)c(=O)c3c(Nc4ccc(I)cc4F)n(C)c(=O)c(C)c32)c1 [Trametinib] (partner 0.02 µM)
The essentials: as §1

For 1 cell line, relative viability results are on record in the supplement of paper PMC10307832.

Consider UMC-11, for which the relative viability was 1.1 with Dactolisib + Luminespib (first compound 0.002 µM); 0.781 with Dactolisib + Luminespib (first compound 0.006325 µM); 0.737 with Dactolisib + Luminespib (first compound 0.02 µM); 0.261 in the assay with Dactolisib + Luminespib (first compound 0.06325 µM); 0.224 in the assay with Dactolisib + Luminespib (first compound 0.2 µM); 0.855 in the assay with Dactolisib + Pemetrexed (first compound 0.002 µM). For the same cell line, the relative viability with Dactolisib + Pemetrexed (first compound 0.006325 µM) turned out to be 0.742; in the assay with Dactolisib + Pemetrexed (first compound 0.02 µM), 0.552; in the assay with Dactolisib + Pemetrexed (first compound 0.06325 µM) it was 0.453; with Dactolisib + Pemetrexed (first compound 0.2 µM) it was 0.26; with Dactolisib + Bortezomib (first compound 0.002 µM) it was 0.732; with Dactolisib + Bortezomib (first compound 0.006325 µM), 0.649. The relative viability in the assay with Dactolisib + Bortezomib (first compound 0.02 µM) stood at 0.57; with Dactolisib + Bortezomib (first compound 0.06325 µM) it was 0.261; in the assay with Dactolisib + Bortezomib (first compound 0.2 µM), 0.18; in the assay with AZ505 + Trametinib (first compound 0.08 µM) it was 0.588; with AZ505 + Trametinib (first compound 0.253 µM), 0.643; with AZ505 + Trametinib (first compound 0.8 µM) it was 0.697. Besides, the relative viability with AZ505 + Trametinib (first compound 2.53 µM) is 0.789; with AZ505 + Trametinib (first compound 8 µM) it was 0.672.
